Measured values from patent US8486931B2, “Substituted oxindole compounds” (Abbott GmbH & Co. KG, priority 2007, dated 2013).

These molecules were tested against T1, human vasopressin V1b receptor (Homo sapiens, UniProt P47901) (assay: Vasopressin V1b receptor binding assay). Conditions: membranes from CHO-K1 cells with stably expressed human V1b receptors, 1.5 nM 3H-AVP displacement; with more than one stereogenic center: the diastereomer with stronger affinity.
T1 construct: expressed in transfected cells; host or cells: CHO-K1 (cell line hV1b-3H2_CHO), membrane preparation
T1 sequence (P47901 1-424): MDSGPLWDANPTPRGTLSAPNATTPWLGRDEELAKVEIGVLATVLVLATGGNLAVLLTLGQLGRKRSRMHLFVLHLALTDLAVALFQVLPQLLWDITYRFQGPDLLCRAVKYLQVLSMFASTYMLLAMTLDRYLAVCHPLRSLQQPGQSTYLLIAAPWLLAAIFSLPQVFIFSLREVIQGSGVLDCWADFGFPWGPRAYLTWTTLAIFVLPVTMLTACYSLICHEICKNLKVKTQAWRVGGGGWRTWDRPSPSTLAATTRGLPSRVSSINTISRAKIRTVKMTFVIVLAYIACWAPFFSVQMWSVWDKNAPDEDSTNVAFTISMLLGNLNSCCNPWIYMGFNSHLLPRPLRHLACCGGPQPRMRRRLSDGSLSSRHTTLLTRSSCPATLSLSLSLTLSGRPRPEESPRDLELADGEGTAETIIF
Description: Such compounds can be investigated in suitable assays which establish the affinity to a receptor, with the affinity constant Ki represening a measure of the potency of the compounds and a smaller value representing a larger potency. The compounds of the invention were tested in the following receptor binding assay for their affinity for the V1 b receptor.
Vasopressin V1 b Receptor Binding Assay:
The test substances were dissolved in a concentration of 10^−2 M in DMSO (dimethyl sulfoxide) and further diluted to 5×10^−4 M to 5×10^−9 M in DMSO. This series of DMSO predilutions was diluted 1:10 with assay buffer. The substance concentration was again diluted 1:5 in the assay mixture (2% DMSO in the mixture).
The membrane pellet was again homogenized and centrifuged as described and then taken up in 50 mM Tris-HCl, pH 7.4, homogenized and stored in aliquots frozen in liquid nitrogen at −190° C.
The incubation buffer was: 50 mM Tris, 10 mM MgCl2, 0.1% BSA, pH 7.4.
The nonspecific binding was determined with 1 μM AVP (Bachem #H1780). All determinations were carried out as triplicate determinations. After incubation (60 minutes at room temperature), the free radioligand was removed by vacuum filtration (Skatron cell harvester 7000) through Whatman GF/B glass fiber filter mats, and the filters were transferred into scintillation vials. The liquid scintillation measurement took place in a Tricarb model 2000 or 2200CA instrument (Packard). Conversion of the measured cpm into dpm was carried out with the aid of a standard quench series.
The binding parameters were calculated by nonlinear regression in SAS.
The above assay was used to measure the affinities of the compounds of the invention for the human vasopressin V1 b receptor and to determine with affinity constants (Ki).
With CCOc1ccccc1C1(N2CCN(c3ccncc3)CC2)C(=O)N(S(=O)(=O)c2cccc3c(C)ccnc23)c2ccc(C#N)cc21 (racemic) [Example 16, (±)-5-Cyano-3-(2-ethoxyphenyl)-1-(4-methylquinoline-8-sulfonyl)-3-(4-pyridin-4-yl-piperazin-1-yl)-2,3-dihydro-1H-indol-2-one] the Ki was < 10 nM.
CCOc1cc(F)ccc1C1(N2CCCN(c3ccncc3)CC2)C(=O)N(S(=O)(=O)c2ccc(OC)cn2)c2ccc(C#N)cc21 (racemic) [Example 147, (±)-5-Cyano-3-(2-ethoxy-4-fluoro-phenyl)-1-(5-methoxy-pyridine-2-sulfonyl)-3-(4-pyridin-4-yl-[1,4]diazepan-1-yl)-2,3-dihydro-1H-indol-2-one] gave a Ki of 10 to 50 nM.
CCOc1ccc(OC)cc1C1(N2CCN(c3ccncc3)CC2)C(=O)N(S(=O)(=O)c2ccc(Cl)c3cccnc23)c2ccc(C#N)cc21 (racemic) [Example 48, (±)-5-Cyano-1-(5-chloroquinoline-8-sulfonyl)-3-(2-ethoxy-5-methoxyphenyl)-3-(4-pyridin-4-ylpiperazin-1-yl)-2,3-dihydro-1H-indol-2-one] was tested, and the Ki was 10 to 50 nM.
With CCOc1ccc(OC)cc1C1(N2CCCN(c3ccnc(C)c3)CC2)C(=O)N(S(=O)(=O)c2cccc3cccnc23)c2ccc(C#N)cc21 (racemic) [Example 62, (±)-5-Cyano-3-(2-ethoxy-5-methoxyphenyl)-3-[4-(2-methylpyridin-4-yl)-[1,4]diazepan-1-yl]-1-(quinoline-8-sulfonyl)-2,3-dihydro-1H-indol-2-one] the Ki was < 10 nM.
In the case of CCOc1cc(F)ccc1C1(N2CCN(c3ccnc(C(C)C)c3)CC2)C(=O)N(S(=O)(=O)c2ccc(OC)cn2)c2ccc(C#N)cc21 (racemic) [Example 153, (±)-5-Cyano-3-(2-ethoxy-4-fluoro-phenyl)-3-[4-(2-isopropyl-pyridin-4-yl)-piperazin-1-yl]-1-(5-methoxy-pyridine-2-sulfonyl)-2,3-dihydro-1H-indol-2-one], the Ki is reported as < 10 nM.
Molecule CCOc1nc(Cl)ccc1C1(N2CCN(c3ccnc(C)c3)CC2)C(=O)N(S(=O)(=O)c2cccc3cccnc23)c2ccc(C#N)cc21 (racemic) [Example 27, (±)-5-Cyano-3-(6-chloro-2-ethoxypyridin-3-yl)-3-[4-(2-methylpyridin-4-yl)-piperazin-1-yl]-1-(quinoline-8-sulfonyl)-2,3-dihydro-1H-indol-2-one] has a Ki of 10 to 50 nM.
Work on COc1ccccc1C1(N2CCN(c3ccncc3)CC2)C(=O)N(S(=O)(=O)c2cccc3cccnc23)c2ccc(C#N)cc21 (racemic) [Example 43, (±)-5-Cyano-3-(2-methoxyphenyl)-3-(4-pyridin-4-ylpiperazin-1-yl)-1-(quinoline-8-sulfonyl)-2,3-dihydro-1H-indol-2-one] yielded a Ki of 10 to 50 nM.
CCOc1ccc(OC)cc1C1(N2CCN(C3CCN(C)CC3)CC2)C(=O)N(S(=O)(=O)c2ccc(OC)cn2)c2ccc(C#N)cc21 (single isomer, unassigned; (+)) [Example 141, (+)-5-Cyano-3-(2-ethoxy-5-methoxy-phenyl)-1-(5-methoxy-pyridine-2-sulfonyl)-3-[4-(1-methyl-piperidin-4-yl)-piperazin-1-yl]-2,3-dihydro-1H-indol-2-one] was tested, and the Ki was 10 to 50 nM.
With CCOc1ccc(OC)cc1C1(N2CCN(c3ccncc3)CC2)C(=O)N(S(=O)(=O)c2ccc(OC)c3cccnc23)c2ccc(C#N)cc21 (racemic) [Example 80, (±)-5-Cyano-3-(2-ethoxy-5-methoxyphenyl)-1-(5-methoxyquinoline-8-sulfonyl)-3-(4-pyridin-4-ylpiperazin-1-yl)-2,3-dihydro-1H-indol-2-one] the Ki was < 10 nM.
For CCOc1nc(Cl)ccc1C1(N2CCC(N3CCNCC3)CC2)C(=O)N(S(=O)(=O)c2ccc(OC)cn2)c2ccc(C#N)cc21 (racemic) [Example 182, (±)-5-Cyano-3-(6-chloro-2-ethoxy-pyridin-3-yl)-1-(5-methoxy-pyridine-2-sulfonyl)-3-(4-piperazin-1-yl-piperidin-1-yl)-2,3-dihydro-1H-indol-2-one], the Ki was < 10 nM.
With COc1ccc(C2(N3CCN(c4ccncc4)CC3)C(=O)N(S(=O)(=O)c3cccc4cccnc34)c3ccc(Cl)cc32)c(OC)c1 (racemic) [Example 1, (±)-5-Chloro-3-(2,4-dimethoxyphenyl)-3-(4-pyridin-4-ylpiperazin-1-yl)-1-(quinoline-8-sulfonyl)-1,3-dihydroindol-2-one] the Ki was < 10 nM.
In the case of CCOc1nc(Cl)ccc1C1(N2CCN(c3ccnc(C)c3)CC2)C(=O)N(S(=O)(=O)c2ccc(OC)cn2)c2ccc(C#N)cc21 (single isomer, unassigned; (+)) [Example 151, (+)-5-Cyano-3-(6-chloro-2-ethoxy-pyridin-3-yl)-1-(5-methoxy-pyridine-2-sulfonyl)-3-[4-(2-methyl-pyridin-4-yl)-piperazin-1-yl]-2,3-dihydro-1H-indol-2-one], the Ki is reported as < 10 nM.
Molecule CCOc1ccccc1C1(N2CCN(c3ccnc(C)c3)CC2)C(=O)N(S(=O)(=O)c2cccc3cccnc23)c2ccc(C#N)cc21 (racemic) [Example 44, (±)-5-Cyano-3-(2-ethoxyphenyl)-3-[4-(2-methylpyridin-4-yl)piperazin-1-yl]-1-(quinoline-8-sulfonyl)-2,3-dihydro-1H-indol-2-one] has a Ki of 10 to 50 nM.
CCOc1ccc(OC)cc1C1(N2CCN(c3ccnc(C)c3)CC2)C(=O)N(S(=O)(=O)c2ccc(C)cn2)c2ccc(C#N)cc21 (racemic) [Example 52, (±)-5-Cyano-3-(2-ethoxy-5-methoxyphenyl)-1-(5-methylpyridine-2-sulfonyl)-3-[4-(2-methylpyridin-4-yl)piperazin-1-yl]-2,3-dihydro-1H-indol-2-one] showed a Ki of 10 to 50 nM.
In the case of CCOc1ccccc1C1(N2CCN(c3ccncc3)C(C)C2)C(=O)N(S(=O)(=O)c2cccc3cccnc23)c2ccc(C#N)cc21 (racemic) [Example 17, (±)-5-Cyano-3-(2-ethoxyphenyl)-3-(3-methyl-4-pyridin-4-ylpiperazin-1-yl)-1-(quinoline-8-sulfonyl)-2,3-dihydro-1H-indol-2-one], the Ki is reported as 10 to 50 nM.
Molecule COc1ccc(CN(C)C)cc1C1(N2CCN(c3ccncc3)CC2)C(=O)N(S(=O)(=O)c2cccc3cccnc23)c2ccc(Cl)cc21 (racemic) [Example 41, (±)-5-Chloro-3-(5-dimethylaminomethyl-2-methoxyphenyl)-3-(4-pyridin-4-ylpiperazin-1-yl)-1-(quinoline-8-sulfonyl)-1,3-dihydroindol-2-one] has a Ki of 10 to 50 nM.
With CCOc1ccc(OC)cc1C1(N2CCN(c3ccncc3)CC2)C(=O)N(S(=O)(=O)c2ccc(OC)cn2)c2ccc(C#N)cc21 (single isomer, unassigned; (+)) [Example 163, (+)-5-Cyano-3-(2-ethoxy-5-methoxy-phenyl)-1-(5-methoxy-pyridine-2-sulfonyl)-3-(4-pyridin-4-yl-piperazin-1-yl)-2,3-dihydro-1H-indol-2-one] the Ki was < 10 nM.
For CCOc1ccccc1C1(N2CCN(c3ccncc3)CC2)C(=O)N(S(=O)(=O)c2ccc(OC)cn2)c2ccc(C#N)cc21 (single isomer, unassigned; (+)) [Example 64, (+)-5-Cyano-3-(2-ethoxyphenyl)-1-(5-methoxypyridine-2-sulfonyl)-3-(4-pyridin-4-yl-piperazin-1-yl)-2,3-dihydro-1H-indol-2-one], the Ki was < 10 nM.
For CCOc1nc(Cl)ccc1C1(N2CCN(c3ccnc(C)c3)CC2)C(=O)N(S(=O)(=O)c2ccc(OC)cn2)c2ccc(C#N)cc21 (racemic) [Example 34, (±)-5-Cyano-3-(6-chloro-2-ethoxypyridin-3-yl)-1-(5-methoxypyridine-2-sulfonyl)-3-[4-(2-methylpyridin-4-yl)piperazin-1-yl]-2,3-dihydro-1H-indol-2-one], the Ki was < 10 nM.
CCOc1ccccc1C1(N2CCN(c3ccncc3)CC2C)C(=O)N(S(=O)(=O)c2cccc3cccnc23)c2ccc(C#N)cc21 (racemic) [Example 6, (±)-5-Cyano-3-(2-ethoxyphenyl)-3-(2-methyl-4-pyridin-4-ylpiperazin-1-yl)-1-(quinoline-8-sulfonyl)-2,3-dihydro-1H-indol-2-one] was tested, and the Ki was < 10 nM.
For COc1ccccc1C1(N2CCN(c3ccncc3)CC2)C(=O)N(S(=O)(=O)c2cccc3cccnc23)c2ccc(Cl)cc21 (racemic) [Example 37, (±)-5-Chloro-3-(2-methoxyphenyl)-3-(4-pyridin-4-ylpiperazin-1-yl)-1-(quinoline-8-sulfonyl)-1,3-dihydroindol-2-one], the Ki was < 10 nM.
